A short description of this data set: Test of solubility property. The following applies: for HDDA (g/100 g): largest weight dissolved in 100 g of 1,6-hexanediol diacrylate (HDDA) at 20° C.; for Acetone (g/100 g): largest weight dissolved in 100 g of acetone at 20° C.

From US11118065B2, “Fluorenylaminoketone photoinitiator, preparation method thereof, and UV photocurable composition containing same” (CHANGZHOU TRONLY ADVANCED ELECTRONIC MATERIALS CO., LTD., priority 2017, dated 2021) come the findings set out here.

SMILES strings stand for the structures.

With `C=CCC1(CC=C)c2cc(OC)ccc2-c2ccc(C(=O)C(C)(C)N3CCOCC3)cc21` [Compound 4], the “HDDA (g/100 g)” value is on record as greater than 15 g/100 g and the “Acetone (g/100 g)” value was greater than 30 g/100 g.
Regarding `CCCCC1(CCCC)c2ccccc2-c2ccc(C(=O)C(C)(C)N3CCOCC3)cc21` [Compound 5], the “HDDA (g/100 g)” value is given as greater than 15 g/100 g and the “Acetone (g/100 g)” value is recorded as greater than 30 g/100 g.
On the same counts, the results for `CCCCC1(CCCC)c2cc(C(=O)c3ccccc3)ccc2-c2ccc(C(=O)C(C)(C)N3CCOCC3)cc21` [Compound 9] are greater than 15 g/100 g and greater than 30 g/100 g.
As to `CCCCC1(CCCC)c2cc(C(=O)C(CC)(Cc3ccccc3)N(C)C)ccc2-c2ccc(N3CCOCC3)cc21` (stereo not shown) [Compound 14], the “HDDA (g/100 g)” value was greater than 15 g/100 g and the “Acetone (g/100 g)” value is given as greater than 30 g/100 g.
The matching figures for `CC(C)(C(=O)c1ccc2c(c1)Cc1cc(C(=O)C(C)(C)N3CCCCC3)ccc1-2)N1CCCCC1` [Compound 24]: greater than 15 g/100 g and greater than 30 g/100 g.
The matching figures for `C=CCC1(CC=C)c2ccccc2-c2ccc(C(=O)C(CC)(Cc3ccccc3)N(C)C)cc21` (stereo not shown) [Compound 34]: greater than 15 g/100 g and greater than 30 g/100 g.
The matching figures for `CCC(Cc1ccccc1)(C(=O)c1ccc2c(c1)C(C)(C)c1cc(N3CCOCC3)ccc1-2)N(C)C` (stereo not shown) [Compound 38, 2-benzyl-2-dimethylamino-9,9-dimethyl-1-(7-morpholinofluorenyl)butanone]: greater than 15 g/100 g and greater than 30 g/100 g.
As to `C=CCC(CC)(C(=O)c1ccc2c(c1)C(C)(C)c1cc(N3CCCCC3)ccc1-2)N(C)C` (stereo not shown) [Compound 39, 2-allyl-2-dimethylamino-9,9-dimethyl-2-(7-piperidinylfluorenyl)butanone], the “HDDA (g/100 g)” value is listed as greater than 15 g/100 g and the “Acetone (g/100 g)” value is greater than 30 g/100 g.
On the same counts, the results for `CCCCC1(CCCC)c2ccccc2-c2ccc(C(=O)C(CC)(Cc3ccccc3)N(C)C)cc21` (stereo not shown) [Compound 40, 2-benzyl-2-dimethylamino-9,9-dibutylfluorene-1-butanone] are greater than 15 g/100 g and greater than 30 g/100 g.
In the case of `CCCCC1(CCCC)c2cc(C(=O)c3ccccc3)ccc2-c2ccc(C(=O)C(CC)(Cc3ccccc3)N(C)C)cc21` (stereo not shown) [Compound 41, 2-benzyl-2-dimethylamino-9,9-dibutyl-1-(7-benzoyl)butanone], the “HDDA (g/100 g)” value is reported as greater than 15 g/100 g and the “Acetone (g/100 g)” value is greater than 30 g/100 g.
On the same counts, the results for `CCCCN(CCCC)c1ccc2c(c1)C(C)(C)c1cc(C(=O)C(CC)(Cc3ccccc3)N(C)C)ccc1-2` (stereo not shown) [Compound 42] are greater than 15 g/100 g and greater than 30 g/100 g.
On the same counts, the results for `CCCC1(CCC)c2cc(C(=O)C(CC)(Cc3ccccc3)N(C)C)ccc2-c2ccc(N3CCCCC3)cc21` (stereo not shown) [Compound 43] are greater than 15 g/100 g and greater than 30 g/100 g.
As for `CCC(Cc1ccccc1)(C(=O)c1ccc2c(c1)C(C)(C)c1cc(N(CCO)CCO)ccc1-2)N(C)C` (stereo not shown) [Compound 45], the “HDDA (g/100 g)” value was greater than 15 g/100 g and the “Acetone (g/100 g)” value was greater than 30 g/100 g.
Take `CCC(Cc1ccccc1)(C(=O)c1ccc(N2CCOCC2)cc1)N(C)C` (stereo not shown) [Irgacure 369, 2-benzyl-2-dimethylamino-1-(4-morpholinophenyl)butanone, reference compound]: the “HDDA (g/100 g)” value was determined as 5 g/100 g and the “Acetone (g/100 g)” value is 17 g/100 g. Also, for the setting “in the UV curing ink formulation, about 10% of butanone solvent required to dissolve completely”, the solubility result is recorded as “relatively poor”.
`CCC(Cc1ccc(C)cc1)(C(=O)c1ccc(N2CCOCC2)cc1)N(C)C` (stereo not shown) [Irgacure 379, 2-(4-methylbenzyl)-2-dimethylamino-1-(4-morpholinophenyl)butanone, reference compound]: the “HDDA (g/100 g)” value is listed as 11 g/100 g and the “Acetone (g/100 g)” value is recorded as 24 g/100 g.
